Key:
[1] = tested on: prolyl hydroxylase enzymes; settings: literature, compared with P2,5D where stated; cited from earlier work
[2] = tested on: EIT-6 mRNA in BT-474 cells; assay: Northern blot of EIT-6 mRNA, BT-474 cells; assay type: cell-based, human
Procedure: All the cell lines were obtained from the ATCC.
To determine if the induction of EIT-6 by estrogen is estrogen receptor-mediated, the effect of estrogen antagonists (4-hydroxy-tamoxifen and ICI 182,780) on EIT-6 mRNA levels was determined. BT-474 cells were cultured with […] (1 μM) or 4-hydroxy-tamoxifen (10 μM) for 6 hours prior to estrogen (10 nM) treatment for an additional 24 hours. […] There are multiple mechanisms by which estrogen can regulate the expression of EIT-6, e.g., (1) directly by transcriptional regulation, (2) directly by influencing mRNA stability, or (3) indirectly through other transcription factors/signaling pathways. […] To further investigate if EIT-6 is a direct or indirect target of estrogen receptors, EIT-6 mRNA levels were measured following estrogen treatment BT-474 cells in the presence of a protein synthesis inhibitor (cycloheximide) (FIG. 2B). The cells were treated with cycloheximide (10 μg/ml) for 16 hours in the presence or absence of estrogen.

[3] = tested on: T47D ER+ breast cancer cells; assay: Colony assay, T47D cells; assay type: cell-based, human; settings: control pCEP4 and EIT-6 transfected cells, charcoal/dextran treated FBS, estrogen 10 nM
Procedure: In order to test whether EIT-6 expresssion influences cell proliferation and/or survival, colony assays were performed. […] T47D ER+breast cancer cells were transfected with a control construct (pCEP4) or the pCEP4-EIT6 construct. Stable transfectants were selected by culturing the cells in the presence of hygromycin for two weeks after which colonies were visualized by crystal violet staining. […] The number of colonies per cm^2 was determined by spot-densitometry-assisted counting using a MultiImage Lightbox (Alfa Innotech, San Leandro, Calif.). Two flasks per experimental group and two independent areas in each flask were analyzed.
To test if expression of EIT-6 can confer estrogen independent growth, ER+and estrogen dependent T47D breast cancer cells were transfected with control pCEP4 or pCEP4-EIT6 constructs. Stable transfectants were selected by culturing the cells in phenol red-free medium supplemented with charcoal/dextran treated (and thus steroid hormone depleted) FBS (5%) and hygromycin. Half the flasks contained estrogen (10 nM). After two weeks of dry selection, colonies were visualized by crystal violet staining and counted as described above.

[4] = tested on: ZR75-1 breast cancer cells; assay: SAGE (serial analysis of gene expression) after estrogen or tamoxifen treatment; assay type: cell-based, human; settings: 10 nM estradiol, 16 h
Source text: (§1) In order to identify genes involved in the response of breast cancer cells to estrogen and tamoxifen, SAGE libraries were generated from an estrogen- dependent human breast cancer cell line (ZR75-1; obtained from the American type Culture Collection (ATTC), Manassas, VA) prior to and following estrogen or tamoxifen treatment. SAGE facilitated the determination of the absolute abundance of thousands of different mRNAs simultaneously in a comprehensive and unbiased way and to detect even slight differences in expression levels between samples [Velculescu et al. (1995) Science 270: 484-487; Polyak et al. (1997) Nature 389:300-305; Lal et al. (1999) Cancer Res. 59:5403-5607; Velculescu et al. (1999) Nature Genetics 23:387-388]. ZR75-1 cells cultured in the absence of steroid hormones (i.e., in phenol red-free culture medium containing charcoal-treated fetal bovine serum (FBS) (5%)) for seven days were split into three aliquots which were then cultured in fresh steroid-free medium containing no additive, 10 nM estradiol, or 10 μM 4-hydroxy-tamoxifen. Cells were harvested from the cultures after sixteen hours and response to the hormone treatment was confirmed by FACS analysis of cell cycle progression and by Northern blot analysis to test for the expression of known estrogen target genes.
SAGE libraries from untreated, estrogen-treated and tamoxifen-treated ZR75-1 cells were generated using a modified micro-SAGE protocol [Porter et al. (2001) Cancer Res. 61: 5697-5702]. From the three SAGE libraries 140,638 tags were obtained, approximately 45,000 from each library. Hierarchical clustering was applied to data using the Auster program developed by Eisen et al. [(1998) Proc. Natl. Acad. Sci. USA. 95: 14863-14868]. Data was log-transformed and filtered for at least 1 observations abs Val 5 and Maxval-Minval >5. Using these settings 2,818 genes (out of 16,808 total) were included in the analysis that led to the identification of several estrogen- and/or tamoxifen-induced transcripts. […] Linking the UniGene database to the SAGE data identified the cDNAs corresponding to the SAGE tags in most of the cases (Table 1). Genes were named according to their relative abundance in the three SAGE libraries: EIT (Estrogen Induced Tag)-induced by estrogen; TIT (Tamoxifen Induced Tag)-induced by tamoxifen; and DET (Differently Expressed Tag)-differently expressed following estrogen or tamoxifen treatment.

[5] = tested on: ZR75-1 cells; assay: FACS analysis of cell cycle progression; assay type: cell-based, human; settings: steroid-deprived ZR75-1 cells; 10 nM estradiol or 10 μM 4-hydroxy-tamoxifen, 16 h
Source text: as §1

[6] = tested on: EIT-6 promoter region; settings: ~5.5 kb EIT-6 promoter construct co-transfected with estrogen receptor α
Procedure: To further characterize the mechanism by which the estrogen receptor induces EIT-6, a fragment of the proximal EIT-6 promoter was tested for its ability to confer estrogen responsiveness on a luciferase reporter gene. The luciferase construct was generated by subcloning a BAC (bacterial artificial chromosome)-derived fragment of EIT-6 promoter region (approximately 5.5 kb in length) into pBR-pl-luc [Polyak et al. (1997)]. The cells were transfected using FuGene 6 (Roche, Basel, Switzerland) and treated with estrogen the day after transfection. On the day following estrogen treatment luciferase activity was determined using a luciferase assay system (Promega, Madison, Wis.). […] Luciferase and β-galactosidase activity was measured following transient co-transfection of these constructs with the estrogen receptor α-encoding construct (referred to above) and a vector containing a β-galactosidase-encoding cDNA sequence under control of a constitutive (CMV) promoter into HepG2 cells as described above and the values of luciferase activity were normalized for transfection efficiency by calculating ratios of luciferase activity to β-galactosidase activity which was measured using the Aurora GAL-XE reporter gene assay (ICN, Costa Mesa, Calif.). “Fold induction” was calculated according to the following formula:

[7] = tested on: EIT-6 mRNA in ZR75-1 cells; assay: Northern blot of EIT-6 mRNA, ZR75-1 cells; assay type: cell-based, human
Source text: To confirm the result of the SAGE experiment, probes corresponding to some of the cDNA clones were generated and the induction of the relevant genes was confirmed by Northern blot analysis (FIG. 1A) performed as previously described [Polyak et al. (1997)]. Of the twenty estrogen- or tamoxifen-induced genes (Table 1), only one (EIT-10;cathepsin D) had previously been implicated as a target of ER-transcriptional activation and three had not previously been described at all. In most cases the sequences of the relevant genes provided important clues as to their potential functions (Table 1). Several of the genes are predicted to be involved in the regulation of cell proliferation and/or survival. […]

[8] = tested on: putative estrogen responsive elements (ERE) in HepG2 cells; assay: Luciferase reporter assay, ERE concatamer constructs with estrogen receptor α in HepG2 cells
Procedure: The cells were transfected using FuGene 6 (Roche, Basel, Switzerland) and treated with estrogen the day after transfection. On the day following estrogen treatment luciferase activity was determined using a luciferase assay system (Promega, Madison, Wis.). […] To determine whether these putative EREs could confer estrogen responsiveness, various constructs containing concatemers of each of these elements (in a variety of combinations) up-stream of a luciferase gene were generated (FIG. 2D). These concatamer constructs were generated by subcloning concatamers of PCR-derived fragments (of the EIT-6 promoter region) containing the putative ERE's into pBR-pl-TATA-luc [Polyak et al. (1997) Nature 389:300-305]. Luciferase and β-galactosidase activity was measured following transient co-transfection of these constructs with the estrogen receptor α-encoding construct (referred to above) and a vector containing a β-galactosidase-encoding cDNA sequence under control of a constitutive (CMV) promoter into HepG2 cells as described above and the values of luciferase activity were normalized for transfection efficiency by calculating ratios of luciferase activity to β-galactosidase activity which was measured using the Aurora GAL-XE reporter gene assay (ICN, Costa Mesa, Calif.). “Fold induction” was calculated according to the following formula:
Fold induction=(luciferase activity in estrogen treated cells÷βgalactosidase activity in estrogen treated cells)÷(luciferase activity in control cells÷βgalactosidase activity in control cells).

[9] = BT-474, 16 h, cycloheximide 10 μg/ml

Q: Which “inhibition of prolyl hydroxylase” value [1] does the source give for `C[C@@H](NC(=O)C(=O)O)C(=O)O` [N-oxalyl-2R-alanine] here?
A: not

Q: With `C[C@H](NC(=O)C(=O)O)C(=O)O` [N-oxalyl-2S-alanine] as the compound, how does the “inhibition of prolyl hydroxylase” value [1] read?
A: Inhibitory

Q: For `C[C@]12CC[C@@H]3c4ccc(O)cc4C[C@@H](CCCCCCCCC[S+]([O-])CCCC(F)(F)C(F)(F)F)[C@H]3[C@@H]1CC[C@@H]2O` (stereo partly shown) [ICI 182,780], which “abolition of estrogen induction of EIT-6 mRNA” value ([2]; BT-474, antagonist (ICI 1 μM or 4-hydroxy-tamoxifen 10 μM) 6 h before estrogen 10 nM for 24 h) is on record?
A: completely

Q: With `O=C(O)CNC(=O)C(=O)O` [N-oxalylglycine] as the compound, how does the “inhibition of prolyl hydroxylase” value [1] read?
A: Inhibitory

Q: Which “EIT-6 mRNA levels, separate treatment” value [2, 9] does the source give for `C[C@@H]1C[C@@H]([C@H](O)CC2CC(=O)NC(=O)C2)C(=O)[C@@H](C)C1` [cycloheximide] here?
A: modestly increased

Q: With `C[C@]12CC[C@@H]3c4ccc(O)cc4CC[C@H]3[C@@H]1CC[C@@H]2O` [estrogen, estradiol] as the compound, how does the “colony numbers on addition of estrogen” value [3] read?
A: increased colony numbers

Q: And the “SAGE tags, E (estrogen-treated)” value ([4]; gene DET-1, untreated C = 4)?
A: 15

Q: And the “SAGE tags, E (estrogen-treated)” value ([4]; gene DET-2, untreated C = 3)?
A: 13

Q: What about the “SAGE tags, E (estrogen-treated)” value ([4]; gene DET-13, untreated C = 7) of the same compound?
A: 1

Q: What about the “SAGE tags, E (estrogen-treated)” value ([4]; gene DET-14, untreated C = 4) of the same compound?
A: 1

Q: What about the “SAGE tags, E (estrogen-treated)” value ([4]; gene DET-15 (USF2), untreated C = 11) of the same compound?
A: 1

Q: What about the “SAGE tags, E (estrogen-treated)” value ([4]; gene DET-16, untreated C = 7) of the same compound?
A: 0

Q: What about the “SAGE tags, E (estrogen-treated)” value ([4]; gene DET-17 (SULT 1A), untreated C = 0) of the same compound?
A: 1

Q: What about the “SAGE tags, E (estrogen-treated)” value ([4]; gene EIT-1, untreated C = 1) of the same compound?
A: 14

Q: What about the “SAGE tags, E (estrogen-treated)” value ([4]; gene EIT-2 (TIM17B), untreated C = 1) of the same compound?
A: 14

Q: And the “SAGE tags, E (estrogen-treated)” value ([4]; gene EIT-3, untreated C = 2)?
A: 19

Q: What about the “SAGE tags, E (estrogen-treated)” value ([4]; gene EIT-4, untreated C = 2) of the same compound?
A: 18

Q: And the “SAGE tags, E (estrogen-treated)” value ([4]; gene EIT-5, untreated C = 5)?
A: 27

Q: What about the “SAGE tags, E (estrogen-treated)” value ([4]; gene EIT-6, untreated C = 5) of the same compound?
A: 26

Q: And the “SAGE tags, E (estrogen-treated)” value ([4]; gene EIT-10 (Cathepsin D), untreated C = 112)?
A: 451

Q: And the “SAGE tags, E (estrogen-treated)” value ([4]; gene TIT-1, untreated C = 0)?
A: 4

Q: And the “SAGE tags, E (estrogen-treated)” value ([4]; gene TIT-2, untreated C = 0)?
A: 3

Q: And the “SAGE tags, E (estrogen-treated)” value ([4]; gene TIT-3, untreated C = 8)?
A: 28

Q: What about the “SAGE tags, E (estrogen-treated)” value ([4]; gene TIT-4, untreated C = 7) of the same compound?
A: 27

Q: And the “SAGE tags, E (estrogen-treated)” value ([4]; gene TIT-5, untreated C = 9)?
A: 19

Q: And the S-phase entry [5]?
A: stimulated rapid S-phase entry

Q: And the luciferase activity [6]?
A: modest but reproducible induction

Q: And the “EIT-6 mRNA levels, separate treatment” value [2, 9]?
A: modestly increased

Q: What about the “EIT-6 mRNA levels, estrogen in the presence of cycloheximide” value ([2]; BT-474, cycloheximide 10 μg/ml, 16 h) of the same compound?
A: much stronger induction

Q: What about the “induction of EIT-6 mRNA” value ([2]; BT-474 cells, Northern blot) of the same compound?
A: ~10 fold

Q: And the “induction of EIT-6 mRNA” value [7]?
A: ~5 fold

Q: What about the “fold induction of luciferase by estrogen” value ([8]; E4 construct (3 copies of the E4 ERE), HepG2, normalized to β-galactosidase) of the same compound?
A: 4-5 fold

Q: What about the “fold induction of luciferase by estrogen” value ([8]; VIT construct (two copies of vitellogenin consensus ERE), HepG2) of the same compound?
A: 10-11 fold

Q: And the “estrogen responsiveness of luciferase constructs” value ([8]; most of the putative ERE combinations, HepG2)?
A: relatively weak

From patent US20040248139A1, “Eit-6, a polypeptide encoded by an estrogen regulated gene” (priority 2001, published 2004)
